Measured values taken from publication PMC6522510 (Nature Communications, 2019).

What was measured:
Set-up in all cases: species or system AML cell lines (8); Primary HTS, single concentration about 10 uM, Cell Titer Glo viability; log10 luminescence, per cent inhibition relative to cycloheximide control
Conditions in all cases: 72 h, relative to cycloheximide control, log10 luminescence; inhibitor
CHRF288-11 = test system: CHRF288-11
CMK = test system: CMK
CMS = test system: CMS
M07e = test system: M07e
ML-2 = test system: ML-2
MOLM-13 = test system: MOLM-13
MV4-11 = test system: MV4-11
U937 = test system: U937

Structure (SMILES) | CHRF288-11 %inh (CHRF288-11) [%] | CMK %inh (CMK) [%] | CMS %inh (CMS) [%] | M07e %inh (M07e) [%] | ML-2 %inh (ML-2) [%] | MOLM-13 %inh (MOLM-13) [%] | MV4-11 %inh (MV4-11) [%] | U937 %inh (U937) [%]
Cn1cc(C2=C(c3c([S+](C)[O-])n(C)c4ccccc34)C(=O)NC2=O)c2ccccc21 (stereo not drawn) [SJ000581040-1] | 12.43 | -2.072 | 0.8019 | 1.342 | 2.43 | -1.878 | 0.5816 | 0.5237
Cn1cc(C2=C(c3cn(CCO)c4ccccc34)C(=O)NC2=O)c2ccccc21 [SJ000581041-1] | 72.88 | 80.06 | 9.772 | 13.99 | 20.21 | 54.73 | 18.13 | 14.77
Cn1c(=O)c(Oc2ccc(F)cc2F)cc2cnc(NC3CCC(O)CC3)nc21 (stereo not drawn) [SJ000581046-1] | 5.265 | -4.641 | -2.545 | 1.519 | 1.601 | 1.486 | -0.7465 | 2.264
CC(C)(O)CCc1cccc(C(=O)c2cnn(-c3ccc(F)cc3)c2N)c1 [SJ000581047-1] | 1.391 | -5.065 | 5.394 | 3.158 | 1.278 | -1.69 | -0.34 | -2.635
Cc1[nH]n(-c2ccccc2)c(=O)c1C(=O)c1ccccc1 [SJ000581048-1] | 3.222 | -9.373 | 1.313 | -0.3361 | 0.679 | -1.767 | -2.724 | -0.7202
O=C1NC(=NCc2c(Cl)cccc2Cl)S/C1=C\c1ccc2ncccc2c1 [SJ000581049-1] | -0.3937 | -7.089 | 2.314 | 1.964 | 1.063 | 5.37 | -1.821 | 5.41
COc1cccc(C2=C(c3cn(C)c4ccccc34)C(=O)NC2=O)c1 [SJ000581051-1] | 11.8 | -3.208 | 3.466 | 5.285 | -0.8075 | 1.318 | 1.602 | -2.854
Cc1nc2sc3c(N)ncnc3c2c(C)c1C [SJ000581052-1] | 5.518 | -9.059 | 0.007081 | 0.5709 | 0.8474 | 0.3678 | -2.527 | 1.552
Cn1cc(C2=C(n3ccc4ccccc43)C(=O)NC2=O)c2ccccc21 [SJ000581055-1] | 24.92 | -4.048 | 4.23 | -0.4303 | -0.8882 | -2.803 | -2.255 | -2.193
CC(=O)N[C@@H](Cc1ccc(OP(=O)(O)O)cc1)C(=O)N[C@H]1CCC(=O)N2CCC[C@@H](C(=O)NCc3ccc(Cl)cc3)N2C1=O [SJ000581056-1] | 0.8967 | -8.834 | 0.4986 | -0.4557 | -0.961 | -1.276 | -2.949 | -1.499
C[C@H](CS(C)(=O)=O)Nc1ncc2cc(Oc3ccc(F)cc3F)c(=O)n(C)c2n1 [SJ000581059-1] | 14.97 | -5.286 | 4.304 | 5.493 | 1.6 | -1.998 | -0.5733 | 2.611
C[C@@H](CS(C)(=O)=O)Nc1ncc2cc(Oc3ccc(F)cc3F)c(=O)n(C)c2n1 [SJ000581059-2] | 4.121 | 2.224 | 1.072 | 9.03 | -1.135 | 1.811 | 3.472 | 2.114
Fc1ccc(-c2c(-c3ccncc3)n(CCN3CCOCC3)c3cccnc23)cc1 [SJ000581060-1] | 10.61 | -1.956 | 2.843 | 4.186 | 0.7421 | -2.603 | -0.5528 | 3.3
Cn1c(=O)c(Oc2ccccc2F)cc2cnc(NC3CCOCC3)nc21 [SJ000581061-1] | 11.16 | -2.528 | 1.876 | 6.564 | 3.823 | -1.076 | 0.7758 | 1.19
Cn1c(=O)c(Oc2ccc(F)cc2F)cc2cnc(NC3CCS(=O)(=O)CC3)nc21 [SJ000581062-1] | 0.18 | -3.198 | -1.245 | 3.904 | 1.685 | -0.445 | -0.9313 | 4.309
O=C1NC(=NCC(CO)c2ccccc2)S/C1=C\c1ccc2ncccc2c1 (stereo not drawn) [SJ000581063-1] | 1.779 | -3.487 | 4.364 | 4.562 | 3.168 | 2.415 | 53.98 | 16.39
Cn1cc(C2=C(c3cn(C)c4ccc(OCc5ccccc5)cc34)C(=O)NC2=O)c2ccccc21 [SJ000581064-1] | 7.008 | -3.355 | 2.588 | 0.1859 | -0.03114 | -0.8092 | 0.7902 | -0.03201
O=C1C(c2c[nH]c3ccccc23)=C(c2c[nH]c3ccccc23)C(=O)N1O [SJ000581067-1] | 18.95 | -5.714 | -0.1746 | 0.7451 | -0.2137 | 0.2373 | 1.166 | -1.683
Cn1cc(C2=C(c3cn(C)c4cc(C(N)=O)ccc34)C(=O)NC2=O)c2ccccc21 [SJ000581068-1] | 59.82 | 87.67 | 51.9 | 58.86 | 54.4 | 63.24 | 76.64 | 75.21
Cn1cc(C2=C(c3c[nH]c4ccccc34)C(=O)NC2=O)c2ccccc21 [SJ000581069-1] | 37 | 44.1 | 13.88 | 40.86 | 39.66 | 79.5 | 15.94 | 53.14
COc1cccc2c1c(C1=C(c3cn(C)c4ccccc34)C(=O)NC1=O)cn2C [SJ000581070-1] | 8.87 | 10.2 | -1.314 | 5.504 | -0.1682 | 2.978 | 0.2803 | -0.4175
CN=C1NC(=O)/C(=C/c2ccc3ncccc3c2)S1 [SJ000581072-1] | 174.6 | 44.3 | 9.143 | 18.48 | 4.634 | 28.17 | 9.718 | 7.703
O=C1NC(=NCc2ccccc2)S/C1=C\c1ccc2ncccc2c1 [SJ000581073-1] | 5.173 | 48.96 | 5.2 | 12.28 | 2.983 | 18.77 | 27.42 | 3.079
CS(=O)(=O)CCCn1c(=O)c(Oc2ccc(F)cc2F)cc2cnc(NC3CCOCC3)nc21 [SJ000581074-1] | 5.377 | -0.8153 | -2.642 | 4.622 | 1.736 | -2.241 | -0.6859 | 1.649
